From patent US20110224208A1, “NOVEL INHIBITORS OF FLAVIVIRUS REPLICATION” (KATHOLIEKE UNIVERSITEIT LEUVEN, K.U. LEUVEN R&D, priority 2008, published 2011)
Converted amounts (≈) assume the structure as drawn. Where two headings read alike, the source gives them in different places.

Assays:
[1] = tested on: HCV replicon (RNA) synthesis; assay: Quantitative analysis of HCV replicon RNA by Taqman real-time RT-PCR in Huh-5-2 cells; assay type: cell-based, Hepatitis C virus; settings: for CT: Huh-5-2 cells, untreated 26.27 ± 0.34; for Delta CT: higher Delta CT = more profound inhibition of viral RNA synthesis; for EC50: Hepatitis C virus, Huh-5-2, concentration required to reduce the synthesis of HCV replicon by 50% as determined by real-time quantitative RT-PCR
Experimental: Replicon cells were plated at 7.5×10^3 cells per well in a 96-well plate plates at 37° C. and 5% CO2 in Dulbecco's modified essential medium containing 10% fetal calf serum, 1% nonessential amino acids and 1 mg/ml Geneticin. After allowing 24 h for cell attachment, different dilutions of compound were added to the cultures. Plates were incubated for 5 days, at which time RNA was extracted using the Qiamp Rneazyi Kit (Qiagen, Hilden, Germany). […] After initial activation of uracil-N-glycosylase at 50° C. for 2 minutes, RT was performed at 60° C. for 30 minutes, followed by inactivation of uracil-N-glycosylase at 95° C. for 5 minutes. Subsequent PCR amplification consisted of 40 cycles of denaturation at 94° C. for 20 seconds and annealing and extension at 62° C. for 1 minute in an ABI 7700 sequence detector. For each PCR run, negative template and positive template samples were used. The cycle threshold value (Ct-value) is defined as the number of PCR cycles for which the signal exceeds the baseline, which defines a positive value. The sample was considered to be positive if the Ct-value was <50. Results are expressed as genomic equivalents (GE).

[2] = tested on: HCV replicon I389luc-ubi-neo/NS3-3'/5.1; assay: Anti-HCV replicon assay (luciferase activity) in Huh-5-2 cells; assay type: cell-based, Hepatitis C virus; settings: Hepatitis C virus, concentration required to inhibit luciferase activity in the replicon system by 50%
Outline: (§1)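 Huh-5-2 cells carrying the luciferase HCV replicon, seeded 24 h, then exposed to serial compound dilutions without G418 for 72 h at 37° C, 5% CO2. Replication read as luciferase luminescence, expressed as percentage of untreated cultures; culture density measured in parallel by MTS.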

[3] = Proliferation of exponentially growing Huh-5-2 cells (MTS method); settings: human
Outline: as §1

[4] = CC50, concentration required to inhibit the proliferation of exponentially growing Huh-5-2 cells by 50%, Table 2
[5] = CC50, concentration required to inhibit the proliferation of exponentially growing Huh-5-2 cells by 50%, Table 4

Row | Compound | IC50 ([2]; Huh-5-2, 72 h) [µg/mL] | CC50 at 72 h [3, 4] [µg/mL] | EC50 [1] [µg/mL] | other results
1 | COCCN1C(=O)c2ccccc2C(C(=O)Nc2cccc(OC)c2)C1c1cccs1 (stereo not drawn) [2-(2-methoxyethyl)-N-(3-methoxyphenyl)-1-oxo-3-(thiophen-2-yl)-1,2,3,4-tetrahydroisoquinoline-4-carboxamide] | – | – | – | CT ([1]; 5 ug/ml): 28.65; Delta CT ([1]; 5 ug/ml): 2.38; CT ([1]; 10 ug/ml): 29.29; Delta CT ([1]; 10 ug/ml): 3.02; CT ([1]; 20 ug/ml): 29.24; Delta CT ([1]; 20 ug/ml): 2.97
2 | COc1cccc(NC(=O)C2c3ccccc3C(=O)N(CC3CCCO3)C2c2cccs2)c1 (stereo not drawn) [C31, N-(3-methoxyphenyl)-1-oxo-2-((tetrahydrofuran-2-yl)methyl)-3-(thiophen-2-yl)-1,2,3,4-tetrahydroisoquinoline-4-carboxamide] | 1.1 (≈ 2.38 µM) | 66.5 (≈ 144 µM) | 18 (≈ 38.9 µM) | CC50 at 72 h [3, 5]: > 50 µg/mL
3 | COCCN1C(=O)c2cc(C)ccc2C(C(=O)Nc2cccc(OC)c2)C1c1cccs1 (stereo not drawn) [C41, 2-(2-Methoxyethyl)-N-(3-methoxyphenyl)-7-methyl-1-oxo-3-(thiophen-2-yl)-1,2,3,4-tetrahydroisoquinoline-4-carboxamide] | 0.5 (≈ 1.11 µM) | 107 (≈ 238 µM) | 0.28 (≈ 0.621 µM) | CC50 at 72 h [3, 5]: > 50 µg/mL
4 | COCCN1C(=O)c2ccccc2C(C(=O)Nc2ccc(C(=O)OC)cc2)C1c1cccs1 (stereo not drawn) [C45, Methyl 4-(2-(2-methoxyethyl)-1-oxo-3-(thiophen-2-yl)-1,2,3,4-tetrahydroisoquinoline-4-carboxamido)benzoate] | 0.1 (≈ 0.215 µM) | – | 12 (≈ 25.8 µM) | –
5 | CCOC(=O)c1cccc(NC(=O)C2c3ccccc3C(=O)N(CCOC)C2c2cccs2)c1 (stereo not drawn) [C46, Ethyl 3-(2-(2-methoxyethyl)-1-oxo-3-(thiophen-2-yl)-1,2,3,4-tetrahydroisoquinoline-4-carboxamido)benzoate] | 1.4 (≈ 2.93 µM) | 86.3 (≈ 180 µM) | 1.19 (≈ 2.49 µM) | CC50 at 72 h [3, 5]: > 50 µg/mL
6 | COCCN1C(=O)c2ccccc2C(C(=O)Nc2cccc(F)c2)C1c1cccs1 (stereo not drawn) [C47, N-(3-fluorophenyl)-2-(2-methoxyethyl)-1-oxo-3-(thiophen-2-yl)-1,2,3,4-tetrahydroisoquinoline-4-carboxamide] | 0.4 (≈ 0.942 µM) | – | 1.42 (≈ 3.35 µM) | –
7 | COCCN1C(=O)c2ccccc2C(C(=O)Nc2ccc(OC)c(OC)c2)C1c1cccs1 (stereo not drawn) [C48, N-(3,4-dimethoxyphenyl)-2-(2-methoxyethyl)-1-oxo-3-(thiophen-2-yl)-1,2,3,4-tetrahydroisoquinoline-4-carboxamide] | 0.3 (≈ 0.643 µM) | – | 0.6 (≈ 1.29 µM) | –
8 | COCCN1C(=O)c2ccccc2C(C(=O)Nc2ccc(Cl)cc2)C1c1cccs1 (stereo not drawn) [C49, N-(4-chlorophenyl)-2-(2-methoxyethyl)-1-oxo-3-(thiophen-2-yl)-1,2,3,4-tetrahydroisoquinoline-4-carboxamide] | 0.1 (≈ 0.227 µM) | – | 0.85 (≈ 1.93 µM) | –
9 | COCCN1C(=O)c2c(F)cccc2C(C(=O)Nc2cccc(OC)c2)C1c1cccs1 (stereo not drawn) [C51, 8-Fluoro-2-(2-methoxyethyl)-N-(3-methoxyphenyl)-1-oxo-3-(thiophen-2-yl)-1,2,3,4-tetrahydroisoquinoline-4-carboxamide] | 0.5 (≈ 1.1 µM) | – | < 0.4 | –
10 | COCCN1C(=O)c2cc(F)ccc2C(C(=O)Nc2cccc(OC)c2)C1c1cccs1 (stereo not drawn) [C52, 7-Fluoro-2-(2-methoxyethyl)-N-(3-methoxyphenyl)-1-oxo-3-(thiophen-2-yl)-1,2,3,4-tetrahydroisoquinoline-4-carboxamide] | 0.4 (≈ 0.88 µM) | 81.2 (≈ 179 µM) | < 0.4 | CC50 at 72 h [3, 5]: > 50 µg/mL
11 | COCCN1C(=O)c2ccccc2C(C(=O)Nc2ccc(-n3cccc3)cc2)C1c1cccs1 (stereo not drawn) [C116, N-(4-(1H-pyrrol-1-yl)phenyl)-2-(2-methoxyethyl)-1-oxo-3-(thiophen-2-yl)-1,2,3,4-tetrahydroisoquinoline-4-carboxamide] | 0.04 (≈ 0.0848 µM) | 72.4 (≈ 154 µM) | 0.062 (≈ 0.131 µM) | CC50 at 72 h [3, 5]: > 50 µg/mL
12 | COCCN1C(=O)c2c(ccc(OC)c2F)C(C(=O)Nc2cccc(OC)c2)C1c1cccs1 (stereo not drawn) [C128, 8-fluoro-7-methoxy-2-(2-methoxyethyl)-N-(3-methoxyphenyl)-1-oxo-3-(thiophen-2-yl)-1,2,3,4-tetrahydroisoquinoline-4-carboxamide] | 0.4 (≈ 0.826 µM) | – | 0.14 (≈ 0.289 µM) | –
13 | COCCN1C(=O)c2ccccc2C(C(=O)Nc2cc(C(C)(C)C)on2)C1c1cccs1 (stereo not drawn) [C142, N-(5-tert-butylisoxazol-3-yl)-2-(2-methoxyethyl)-1-oxo-3-(thiophen-2-yl)-1,2,3,4-tetrahydroisoquinoline-4-carboxamide] | 0.04 (≈ 0.0882 µM) | – | 0.22 (≈ 0.485 µM) | –
14 | C#CC1C(C(=O)Nc2ccc(-n3cccc3)cc2)c2ccccc2C(=O)N1CCOC (stereo not drawn) [C152, N-(4-(1H-pyrrol-1-yl)phenyl)-3-ethynyl-2-(2-methoxyethyl)-1-oxo-1,2,3,4-tetrahydroisoquinoline-4-carboxamide] | 0.2 (≈ 0.484 µM) | 30 (≈ 72.6 µM) | 0.2 (≈ 0.484 µM) | CC50 at 72 h [3, 5]: > 30 µg/mL
15 | COCCN1C(=O)c2ccccc2C(C(=O)Nc2ccc(-n3cccc3)cc2)C1c1ccc(Cl)s1 (stereo not drawn) [C153, N-(4-(1H-pyrrol-1-yl)phenyl)-3-(5-chlorothiophen-2-yl)-2-(2-methoxyethyl)-1-oxo-1,2,3,4-tetrahydroisoquinoline-4-carboxamide] | 0.104 (≈ 0.206 µM) | – | 1.12 (≈ 2.21 µM) | –
16 | COCCN1C(=O)c2ccccc2C(C(=O)Nc2ccc(-c3csc(C)n3)cc2)C1c1cccs1 (stereo not drawn) [C157, 2-(2-methoxyethyl)-N-(4-(2-methylthiazol-4-yl)phenyl)-1-oxo-3-(thiophen-2-yl)-1,2,3,4-tetrahydroisoquinoline-4-carboxamide] | 0.04 (≈ 0.0794 µM) | – | 0.036 (≈ 0.0715 µM) | –
17 | COCCN1C(=O)c2ccccc2C(C(=O)Nc2ccc(-c3ccco3)cc2)C1c1cccs1 (stereo not drawn) [C159, N-(4-(furan-2-yl)phenyl)-2-(2-methoxyethyl)-1-oxo-3-(thiophen-2-yl)-1,2,3,4-tetrahydroisoquinoline-4-carboxamide] | 0.028 (≈ 0.0593 µM) | > 100 | 0.064 (≈ 0.135 µM) | CC50 at 72 h [3, 5]: > 50 µg/mL
18 | COCCN1C(=O)c2ccccc2C(C(=O)Nc2ccc3nc(C)ccc3c2)C1c1cccs1 (stereo not drawn) [C168, 2-(2-methoxyethyl)-N-(2-methylquinolin-6-yl)-1-oxo-3-(thiophen-2-yl)-1,2,3,4-tetrahydroisoquinoline-4-carboxamide] | 0.037 (≈ 0.0785 µM) | – | 0.048 (≈ 0.102 µM) | –
19 | COCCN1C(=O)c2ccccc2C(C(=O)Nc2ccc(-c3ncccn3)cc2)C1c1cccs1 (stereo not drawn) [C175, 2-(2-methoxyethyl)-1-oxo-N-(4-(pyrimidin-2-yl)phenyl)-3-(thiophen-2-yl)-1,2,3,4-tetrahydroisoquinoline-4-carboxamide] | 0.057 (≈ 0.118 µM) | – | 0.046 (≈ 0.0949 µM) | –
20 | COCCN1C(=O)c2ccccc2C(C(=O)Nc2ccc(-c3cnco3)cc2)C1c1cccs1 (stereo not drawn) [C178, 2-(2-methoxyethyl)-N-(4-(oxazol-5-yl)phenyl)-1-oxo-3-(thiophen-2-yl)-1,2,3,4-tetrahydroisoquinoline-4-carboxamide] | 0.035 (≈ 0.0739 µM) | – | 0.036 (≈ 0.076 µM) | –
21 | COCCN1C(=O)c2ccccc2C(C(=O)Nc2ccc(-c3noc(C)n3)cc2)C1c1cccs1 (stereo not drawn) [C187, 2-(2-methoxyethyl)-N-(4-(5-methyl-1,2,4-oxadiazol-3-yl)phenyl)-1-oxo-3-(thiophen-2-yl)-1,2,3,4-tetrahydroisoquinoline-4-carboxamide] | 0.01 (≈ 0.0205 µM) | – | < 0.016 | –
22 | COCCN1C(=O)c2ccccc2C(C(=O)Nc2ccc(Oc3cncc(C)n3)cc2)C1c1cccs1 (stereo not drawn) [C191, 2-(2-methoxyethyl)-N-(4-(6-methylpyrazin-2-yloxy)phenyl)-1-oxo-3-(thiophen-2-yl)-1,2,3,4-tetrahydroisoquinoline-4-carboxamide] | 0.013 (≈ 0.0253 µM) | – | 0.013 (≈ 0.0253 µM) | –
23 | COCCN1C(=O)c2ccccc2C(C(=O)Nc2ccc(C#N)c(C(F)(F)F)c2)C1c1cccs1 (stereo not drawn) [C221, N-(4-cyano-3-(trifluoromethyl)phenyl)-2-(2-methoxyethyl)-1-oxo-3-(thiophen-2-yl)-1,2,3,4-tetrahydroisoquinoline-4-carboxamide] | 0.36 (≈ 0.721 µM) | 3.52 (≈ 7.05 µM) | – | –
24 | COCCN1C(=O)c2ccccc2C(C(=O)Nc2nc3ccc(OC)cc3s2)C1c1ccc(F)cc1 (stereo not drawn) [C273, 3-(4-fluorophenyl)-N-(6-methoxybenzo[d]thiazol-2-yl)-2-(2-methoxyethyl)-1-oxo-1,2,3,4-tetrahydroisoquinoline-4-carboxamide] | – | – | – | IC50 ([2]; 72 hours, read-out: IC50): 1.4 µg/mL (≈ 2.77 µM); CC50 at 72 h ([3]; Huh-5-2 cells (Huh-5 cell line with persistent HCV replicon)): 14.9 µg/mL (≈ 29.5 µM)
